pIC50: −log10 of the molar value.
Key:
Format in all cases: biochemical
VEGFR2 = biological target: T1, VEGFR2 (Homo sapiens, UniProt P35968); test: Z'-LYTE in vitro enzyme activity assay, VEGFR2; settings: 100 μM ATP, 60 minutes, room temperature; read-out: IC50 detected by Z'-LYTE, VEGFR2
T1 construct: purchased Life technology
Procedure: (§1) The enzyme activity was measured by Z′-LYTE™ Detection Kinase Assay. The IC50 value of the compounds was used as an index to evaluate the inhibitory effect of the compounds on VEGFR2, FGFR1 and PDGFRB.
(§2) Recombinant human VEGFR2 and FGFR1 proteases were purchased from Life technology, PDGFRB Protease was purchased from Millipore.
(§3) Z-LYTE™ Kit Tyr1 and Tyr4 were purchased from Life technology. Multi-microplate reader, Envision (PerkinElmer) read board was used.
(§4) The test compounds were diluted 3 times with a concentration gradient, the final concentration was from 10 μM to 0.17 nM with a total of 11 concentrations, and each concentration had two parallel holes; the content of DMSO in the assay was 1%.
3 nM VEGFR2 protein kinase, 2 μM Tyr1 peptide, 100 μM ATP, 50 mM HEPES (pH 7.5), 10 mM MgCl2, 1 mM EGTA, 0.01% BRIJ-35. The detector plate was Black Proxiplate 384-Plus plate (PerkinElmer), the reaction was performed at room temperature for 60 minutes, and the reaction system was 10 μl.
(§5) The reaction was stopped by adding 5 μl of DV reagent B (1:128) to the kinase reaction solution and incubated at 23° C. for 60 minutes. The Envision instrument was used to read the plate.
(§6) The data was converted to phosphorylation rate and inhibition rate and the 4 parameter curve fitting (Model 205 in XLFIT5, iDBS) was used to get IC50 data of the compounds.

FGFR1 = biological target: T2, FGFR1 (Homo sapiens, UniProt P11362); test: Z'-LYTE in vitro enzyme activity assay, FGFR1; settings: 25 μM ATP, 60 minutes, room temperature; read-out: IC50 detected by Z'-LYTE, FGFR1
T2 construct: purchased Life technology
Procedure: as §1, §2, §3, §4
(§7) 1 nM FGFR1 protein kinase, 2 μM Tyr4 peptide, 25 μM ATP, 50 mM HEPES (pH 7.5), 10 mM MgCl2, 1 mM EGTA, 0.01% BRIJ-35, 2 mM MnCl2, 1 mM DTT. The detector plate was Black Proxiplate 384-Plus plate (PerkinElmer), the reaction was performed at room temperature for 60 minutes, and the reaction system was 10 μl.
as §5, §6

PDGFRB = biological target: T3, PDGFRB (Homo sapiens, UniProt P09619); test: Z'-LYTE in vitro enzyme activity assay, PDGFRB; settings: 100 μM ATP, 60 minutes, room temperature; read-out: IC50 detected by Z'-LYTE, PDGFRB
T3 construct: purchased Millipore
Procedure: as §1, §2, §3, §4
as §7, with “40 nM PDGFRB” for “1 nM FGFR1”, “40 nM PDGFRB protein kinase,” for “1 nM FGFR1 protein kinase,”, “Tyr4 peptide, 100 μM ATP,” for “Tyr4 peptide, 25 μM ATP,”
as §5, §6

T2 sequence (P11362 22-822): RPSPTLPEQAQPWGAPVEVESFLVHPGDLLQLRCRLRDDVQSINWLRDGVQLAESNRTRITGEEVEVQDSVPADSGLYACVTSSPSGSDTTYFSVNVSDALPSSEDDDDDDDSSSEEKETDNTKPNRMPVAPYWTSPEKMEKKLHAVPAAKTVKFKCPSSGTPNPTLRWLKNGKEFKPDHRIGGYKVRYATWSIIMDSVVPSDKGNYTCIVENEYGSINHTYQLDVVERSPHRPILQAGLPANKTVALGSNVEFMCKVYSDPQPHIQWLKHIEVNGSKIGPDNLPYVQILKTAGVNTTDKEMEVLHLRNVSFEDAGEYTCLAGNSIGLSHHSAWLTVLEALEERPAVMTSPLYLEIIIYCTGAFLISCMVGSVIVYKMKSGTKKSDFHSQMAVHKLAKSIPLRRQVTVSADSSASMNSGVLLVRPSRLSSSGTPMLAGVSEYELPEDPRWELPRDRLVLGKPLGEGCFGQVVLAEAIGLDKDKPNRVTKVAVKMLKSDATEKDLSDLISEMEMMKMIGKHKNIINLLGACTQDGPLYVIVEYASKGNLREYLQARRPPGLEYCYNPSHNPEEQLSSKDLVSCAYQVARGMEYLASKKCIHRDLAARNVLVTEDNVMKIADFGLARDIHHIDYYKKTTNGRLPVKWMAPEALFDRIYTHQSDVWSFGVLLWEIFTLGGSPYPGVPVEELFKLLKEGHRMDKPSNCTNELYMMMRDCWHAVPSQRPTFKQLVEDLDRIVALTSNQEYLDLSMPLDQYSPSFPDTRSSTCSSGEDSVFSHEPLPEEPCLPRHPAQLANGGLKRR
T3 sequence (P09619 33-1106): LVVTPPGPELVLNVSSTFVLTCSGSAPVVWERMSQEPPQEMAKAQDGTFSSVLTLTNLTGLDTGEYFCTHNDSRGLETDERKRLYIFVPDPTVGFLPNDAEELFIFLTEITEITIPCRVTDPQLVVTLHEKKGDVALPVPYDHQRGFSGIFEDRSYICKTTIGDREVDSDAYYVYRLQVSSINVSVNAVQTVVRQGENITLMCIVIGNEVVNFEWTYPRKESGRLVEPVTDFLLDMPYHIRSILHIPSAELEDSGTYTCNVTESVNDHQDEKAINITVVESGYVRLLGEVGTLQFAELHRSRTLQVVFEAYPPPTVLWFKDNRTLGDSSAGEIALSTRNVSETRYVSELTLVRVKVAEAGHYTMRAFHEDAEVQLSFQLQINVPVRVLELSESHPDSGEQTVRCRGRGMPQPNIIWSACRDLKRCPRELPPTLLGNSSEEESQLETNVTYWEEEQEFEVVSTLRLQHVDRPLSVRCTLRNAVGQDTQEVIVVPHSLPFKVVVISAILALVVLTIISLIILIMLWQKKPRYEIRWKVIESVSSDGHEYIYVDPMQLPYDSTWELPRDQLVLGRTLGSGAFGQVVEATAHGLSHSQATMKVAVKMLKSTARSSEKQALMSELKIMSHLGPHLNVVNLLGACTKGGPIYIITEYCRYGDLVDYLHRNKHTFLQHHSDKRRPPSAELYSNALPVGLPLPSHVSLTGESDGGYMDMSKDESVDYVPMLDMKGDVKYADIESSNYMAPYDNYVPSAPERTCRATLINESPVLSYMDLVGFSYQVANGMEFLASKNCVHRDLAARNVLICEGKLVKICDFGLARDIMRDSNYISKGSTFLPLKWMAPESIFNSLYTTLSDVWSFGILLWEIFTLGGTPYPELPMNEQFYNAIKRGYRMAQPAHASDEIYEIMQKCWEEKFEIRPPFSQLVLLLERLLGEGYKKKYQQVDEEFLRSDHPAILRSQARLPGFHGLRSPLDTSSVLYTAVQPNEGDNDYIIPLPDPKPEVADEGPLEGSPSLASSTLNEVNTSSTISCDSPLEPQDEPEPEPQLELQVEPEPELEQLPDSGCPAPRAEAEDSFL
T1 sequence (P35968 20-1356): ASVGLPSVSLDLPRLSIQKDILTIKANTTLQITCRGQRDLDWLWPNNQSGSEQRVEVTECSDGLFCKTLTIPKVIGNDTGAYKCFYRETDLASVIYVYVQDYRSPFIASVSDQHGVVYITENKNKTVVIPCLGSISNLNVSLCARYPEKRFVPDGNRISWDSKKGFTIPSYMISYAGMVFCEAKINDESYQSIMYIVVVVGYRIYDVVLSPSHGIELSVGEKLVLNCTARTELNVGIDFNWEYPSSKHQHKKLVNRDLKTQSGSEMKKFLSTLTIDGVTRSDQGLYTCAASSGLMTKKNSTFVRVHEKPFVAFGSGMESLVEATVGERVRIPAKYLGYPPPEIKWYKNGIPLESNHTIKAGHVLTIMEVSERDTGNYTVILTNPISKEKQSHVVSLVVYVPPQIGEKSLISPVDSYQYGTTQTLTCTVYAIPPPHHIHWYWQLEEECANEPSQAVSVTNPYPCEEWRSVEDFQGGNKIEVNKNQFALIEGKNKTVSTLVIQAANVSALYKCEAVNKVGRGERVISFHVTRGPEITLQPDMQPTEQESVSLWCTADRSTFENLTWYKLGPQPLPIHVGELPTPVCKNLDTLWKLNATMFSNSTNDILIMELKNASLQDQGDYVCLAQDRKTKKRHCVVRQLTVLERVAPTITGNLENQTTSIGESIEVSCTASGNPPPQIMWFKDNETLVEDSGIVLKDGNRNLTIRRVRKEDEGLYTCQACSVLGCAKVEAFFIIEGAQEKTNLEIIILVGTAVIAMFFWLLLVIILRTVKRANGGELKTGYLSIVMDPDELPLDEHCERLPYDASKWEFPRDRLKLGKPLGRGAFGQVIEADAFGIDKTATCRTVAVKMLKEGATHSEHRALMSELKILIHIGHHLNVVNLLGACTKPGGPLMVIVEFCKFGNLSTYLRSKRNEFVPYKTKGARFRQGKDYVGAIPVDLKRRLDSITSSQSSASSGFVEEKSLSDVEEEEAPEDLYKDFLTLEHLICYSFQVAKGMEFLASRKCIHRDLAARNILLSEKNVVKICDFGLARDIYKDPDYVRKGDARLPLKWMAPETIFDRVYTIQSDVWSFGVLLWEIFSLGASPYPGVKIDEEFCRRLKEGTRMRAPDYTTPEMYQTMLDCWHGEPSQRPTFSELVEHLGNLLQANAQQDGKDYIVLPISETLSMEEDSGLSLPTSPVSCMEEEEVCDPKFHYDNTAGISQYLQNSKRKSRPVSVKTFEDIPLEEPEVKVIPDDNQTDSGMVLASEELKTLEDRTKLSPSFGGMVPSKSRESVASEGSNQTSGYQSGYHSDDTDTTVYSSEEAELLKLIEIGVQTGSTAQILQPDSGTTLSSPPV

Structure (SMILES) | pIC50 (VEGFR2) | pIC50 (FGFR1) | pIC50 (PDGFRB)
COc1cc2nccc(Oc3ccc(NC(=S)NC(C)C)c(Cl)c3)c2cc1C(N)=O [Example 52] | > 7.30 | 6.00 to 6.70 | 6.70 to 7.30
COc1cc2nccc(Oc3ccc(NC(=S)NC4CC4)c(Cl)c3)c2cc1C(=O)N1CC(F)(F)C1 [Example 53] | 6.00 to 6.70 | 6.00 to 6.70 | 6.70 to 7.30
COc1cc2nccc(Oc3ccc(NC(=S)NC4CC4)c(Cl)c3)c2cc1C(=O)NC1CC1 [Example 54] | 6.70 to 7.30 | 6.00 to 6.70 | 6.00 to 6.70
COc1cc2nccc(Oc3ccc(NC(N)=S)c(Cl)c3)c2cc1C(N)=O [Example 57] | > 7.30 | 6.00 to 6.70 | 6.70 to 7.30
COc1cc2nccc(Oc3ccc(NC(=S)NC4CC=C(F)CC4)c(Cl)c3)c2cc1C(N)=O (stereo not drawn) [Example 60] | 6.00 to 6.70 | 6.00 to 6.70 | 6.00 to 6.70
COc1cc2nccc(Oc3ccc(NC(=S)NC4CCC(F)(F)CC4)c(Cl)c3)c2cc1C(N)=O [Example 61] | 6.00 to 6.70 | 6.00 to 6.70 | 6.70 to 7.30
COCCNC(=O)c1cc2c(Oc3ccc(NC(=S)NC4CC4)c(Cl)c3)ccnc2cc1OC [Example 62] | 6.70 to 7.30 | 6.00 to 6.70 | 6.00 to 6.70
COc1cc2nccc(Oc3ccc(NC(=S)NCCCSC)c(Cl)c3)c2cc1C(N)=O [Example 63] | 6.70 to 7.30 | 6.00 to 6.70 | > 7.30
COc1cc2nccc(Oc3ccc(NC(=S)Nc4ccc(F)cc4)c(Cl)c3)c2cc1C(N)=O [Example 64] | 6.70 to 7.30 | 6.00 to 6.70 | > 7.30
COc1cc2nccc(Oc3ccc(NC(=S)Nc4ccccc4F)c(Cl)c3)c2cc1C(N)=O [Example 65] | 6.70 to 7.30 | 6.00 to 6.70 | > 7.30
COc1cc2nccc(Oc3ccc(NC(=S)N4CCC(F)(F)C4)c(Cl)c3)c2cc1C(N)=O [Example 66] | 6.70 to 7.30 | 6.00 to 6.70 | 6.00 to 6.70
COc1cc2nccc(Oc3ccc(NC(=S)N4CCC(F)(F)CC4)c(Cl)c3)c2cc1C(N)=O [Example 67] | 6.70 to 7.30 | 6.00 to 6.70 | 6.00 to 6.70
COc1cc2nccc(Oc3ccc(NC(=S)N4CCC4)c(Cl)c3)c2cc1C(N)=O [Example 68] | 6.70 to 7.30 | 6.70 to 7.30 | 6.70 to 7.30
COc1cc2nccc(Oc3ccc(NC(=S)N4CC(O)C4)c(Cl)c3)c2cc1C(N)=O [Example 69] | 6.70 to 7.30 | 6.00 to 6.70 | 6.70 to 7.30
COc1cc2nccc(Oc3ccc(NC(=S)Nc4cnc(C)s4)c(Cl)c3)c2cc1C(N)=O [Example 71] | 6.70 to 7.30 | 6.00 to 6.70 | 6.70 to 7.30
COc1cc(Oc2ccnc3cc(OC)c(C(N)=O)cc23)ccc1NC(=S)NC1CC1 [Example 72] | 6.70 to 7.30 | 6.00 to 6.70 | 6.70 to 7.30
COc1cc2nccc(Oc3ccc(NC(=S)N4CC[C@@H](O)C4)c(Cl)c3)c2cc1C(N)=O [Example 73] | 6.70 to 7.30 | 6.00 to 6.70 | 6.00 to 6.70
COc1cc2nccc(Oc3ccc(NC(=S)N4CC[C@H](O)C4)c(Cl)c3)c2cc1C(N)=O [Example 74] | 6.70 to 7.30 | 6.00 to 6.70 | 6.00 to 6.70
COc1cc2nccc(Oc3ccc(NC(=S)NC4(C#N)CC4)c(Cl)c3)c2cc1C(N)=O [Example 75] | 6.00 to 6.70 | 6.00 to 6.70 | 6.00 to 6.70
COc1cc2nccc(Oc3ccc(NC(=S)NC4(C(F)(F)F)CC4)c(Cl)c3)c2cc1C(N)=O [Example 76] | 6.00 to 6.70 | 6.00 to 6.70 | 6.00 to 6.70
COc1cc2nccc(Oc3cc(Cl)c(NC(=S)NC4CC4)cc3F)c2cc1C(N)=O [Example 77] | > 7.30 | 6.00 to 6.70 | 6.70 to 7.30
COc1cc2nccc(Oc3ccc(NC(=S)NC4CC4)c(Cl)c3)c2cc1C#N [Example 80] | 6.70 to 7.30 | 6.00 to 6.70 | 6.00 to 6.70
COc1cc2nccc(Oc3ccc(N4C(=O)CN(C)C4=S)c(Cl)c3)c2cc1C(N)=O [Example 81] | 6.00 to 6.70 | 6.00 to 6.70 | 6.70 to 7.30
COc1cc2nccc(Oc3ccc(N4CC(=O)N(C)C4=S)c(Cl)c3)c2cc1C(N)=O [Example 82] | 6.00 to 6.70 | 6.00 to 6.70 | 6.70 to 7.30

Now from value to molecule:

pIC50 (VEGFR2) | pIC50 (FGFR1) | pIC50 (PDGFRB) | Structure (SMILES)
6.70 to 7.30 | 6.00 to 6.70 | 6.70 to 7.30 | COc1cc2nccc(Oc3cc(F)c(NC(=S)NC4CC4)c(F)c3)c2cc1C(N)=O [Example 83]
6.00 to 6.70 | 6.00 to 6.70 | 6.00 to 6.70 | COc1cc2ncc(Cl)c(Oc3ccc(NC(=S)NC4CC4)c(Cl)c3)c2cc1C(N)=O [Example 84]
6.00 to 6.70 | 6.00 to 6.70 | 6.00 to 6.70 | COc1cc2nccc(Oc3ccc(NC(=S)N4CC(C)(O)C4)c(Cl)c3)c2cc1C(N)=O [Example 85]
6.00 to 6.70 | 6.00 to 6.70 | 6.00 to 6.70 | COc1cc2ncc(Cl)c(Oc3ccc(NC(=S)N4CCCC4)c(Cl)c3)c2cc1C(N)=O [Example 88]
6.00 to 6.70 | 6.00 to 6.70 | 6.00 to 6.70 | COc1cc2ncc(Cl)c(Oc3ccc(NC(=S)N4CC(F)(F)C4)c(Cl)c3)c2cc1C(N)=O [Example 89]
6.00 to 6.70 | 6.70 to 7.30 | 6.00 to 6.70 | COc1cc2nccc(Oc3cc(F)c(NC(=S)N4CC(F)(F)C4)c(F)c3)c2cc1C(N)=O [Example 90]
6.70 to 7.30 | 6.00 to 6.70 | 6.00 to 6.70 | COc1cc2nccc(Oc3cc(F)c(NC(=S)N4CCCC4)c(F)c3)c2cc1C(N)=O [Example 91]
6.70 to 7.30 | 6.00 to 6.70 | 6.70 to 7.30 | C#CCNC(=S)Nc1ccc(Oc2ccnc3cc(OC)c(C(N)=O)cc23)cc1Cl [Example 92]
6.00 to 6.70 | 6.00 to 6.70 | 6.00 to 6.70 | COc1cc2nccc(Oc3ccc(NC(=S)NC4CCOC4=O)c(Cl)c3)c2cc1C(N)=O (stereo not drawn) [Example 93]
6.00 to 6.70 | 6.00 to 6.70 | 6.00 to 6.70 | COc1cc2nccc(Oc3ccc(NC(=S)NC4CCNC4=O)c(Cl)c3)c2cc1C(N)=O (stereo not drawn) [Example 94]
6.00 to 6.70 | 6.00 to 6.70 | 6.70 to 7.30 | COc1cc2nccc(Oc3ccc(NC(=S)N4CC(F)(F)C4)cc3F)c2cc1C(N)=O [Example 101]
6.00 to 6.70 | 6.00 to 6.70 | 6.00 to 6.70 | COC[C@@H]1CCCN1NC(=S)Nc1ccc(Oc2ccnc3cc(OC)c(C(N)=O)cc23)c(F)c1Cl [Example 105]
> 7.30 | 6.70 to 7.30 | 6.00 to 6.70 | COc1cc2nccc(Oc3ccc(NC(=S)N4CC[C@H](O)C4)c(Cl)c3F)c2cc1C(N)=O [Example 106]
6.70 to 7.30 | 6.70 to 7.30 | 6.00 to 6.70 | COc1cc2nccc(Oc3ccc(NC(=S)N4CC[C@@H](F)C4)c(Cl)c3F)c2cc1C(N)=O [Example 108]
6.70 to 7.30 | 6.70 to 7.30 | 6.00 to 6.70 | COc1cc2nccc(Oc3ccc(NC(=S)N4CC[C@@H](O)C4)c(Cl)c3F)c2cc1C(N)=O [Example 111]
6.00 to 6.70 | 6.00 to 6.70 | 6.00 to 6.70 | COc1cc2nccc(Oc3ccc(NC(=O)N4CC[C@@H](F)C4)c(Cl)c3F)c2cc1C(N)=O [Example 113]
6.00 to 6.70 | 6.00 to 6.70 | 6.00 to 6.70 | COc1cc2nccc(Oc3ccc(NC(=O)N4CC[C@@H](O)C4)c(Cl)c3F)c2cc1C(N)=O [Example 115]
6.70 to 7.30 | 6.00 to 6.70 | 6.70 to 7.30 | COc1cc2nccc(Oc3ccc(NC(=O)N4CC[C@H](F)C4)c(Cl)c3F)c2cc1C(N)=O [Example 117]
6.70 to 7.30 | 6.00 to 6.70 | 6.70 to 7.30 | COc1cc2nccc(Oc3ccc(NC(=O)N4CC[C@H](O)C4)c(Cl)c3F)c2cc1C(N)=O [Example 118]
6.70 to 7.30 | 6.00 to 6.70 | > 7.30 | COc1cc2nccc(Oc3ccc(NC(=O)N4CC(F)(F)C4)c(Cl)c3F)c2cc1C(N)=O [Example 119]
6.70 to 7.30 | 6.00 to 6.70 | 6.70 to 7.30 | COc1cc2nccc(Oc3ccc(NC(=O)N4CCCC4)c(Cl)c3F)c2cc1C(N)=O [Example 120]
6.70 to 7.30 | 6.00 to 6.70 | 6.00 to 6.70 | COc1cc2nccc(Oc3ccc(NC(=O)N4CC(O)C4)c(Cl)c3F)c2cc1C(N)=O [Example 121]

Source: patent publication US10654808B2, “Tyrosine kinase inhibitor and pharmaceutical composition comprising same” (GUANGDONG RAYNOVENT BIOTECH CO., LTD., priority 2015, dated 2020)
